Test results taken from patent US6579718B1, “Carbazolylvinyl dye protein stains” (Molecular Probes, Inc., priority 2000, dated 2003).
“And” between values parts separate entries of the source, which are not always exact repeats. Identical values can stand only once.

How the values were obtained:
tubulin = assay: Electroblotting of tubulin from stained gels (Example 24); conditions: phosphate-buffered saline staining formulation
Method: Tubulin was selected as a model protein since it is relatively difficult to elute from gels by simple passive diffusion (Example 23). Two-fold serial dilutions of […] ranging from 1000 to 1 ng are applied and separated by sodium dodecyl sulfate (SDS)-polyacrylamide gel electrophoresis according to standard procedures. After electrophoresis, gels are stained with either Compound 9 or SYPRO Orange dye as described in Example 23, photographed and then incubated in a transfer buffer consisting of 10 mM Tris, 96 mM glycine, 10% methanol, 0.1% sodium dodecyl sulfate, pH 8.3. Proteins are electroblotted to poly(vinylidene difluoride) (PVDF) membranes using the same transfer buffer for 120 minutes using a semi-dry blotter by standard methods. Immunoblotting is performed by standard methods and colorimetric procedures are employed to detect the tubulin using 5-bromo-4-chloroindolyl phosphate/nitroblue tetrazolium (BCIP/NBT). […] Tubulin can subsequently be visualized by using alkaline phosphatase-conjugated secondary antibody with similar detection sensitivity as electroblots of unstained, control gels. The transfer of tubulin from gels stained with SYPRO Orange dye in 7% acetic acid is not possible despite a 20-minute incubation in transfer buffer containing 0.1% sodium dodecyl sulfate prior to blotting.

BSA = BSA (Bos taurus, UniProt P02769); assay: Absorbance/emission spectra, fluorescence enhancement and quantum yield of dyes in solution +/- BSA (Example 21); type: physicochemical, bovine
Chain of BSA (P02769 25-607): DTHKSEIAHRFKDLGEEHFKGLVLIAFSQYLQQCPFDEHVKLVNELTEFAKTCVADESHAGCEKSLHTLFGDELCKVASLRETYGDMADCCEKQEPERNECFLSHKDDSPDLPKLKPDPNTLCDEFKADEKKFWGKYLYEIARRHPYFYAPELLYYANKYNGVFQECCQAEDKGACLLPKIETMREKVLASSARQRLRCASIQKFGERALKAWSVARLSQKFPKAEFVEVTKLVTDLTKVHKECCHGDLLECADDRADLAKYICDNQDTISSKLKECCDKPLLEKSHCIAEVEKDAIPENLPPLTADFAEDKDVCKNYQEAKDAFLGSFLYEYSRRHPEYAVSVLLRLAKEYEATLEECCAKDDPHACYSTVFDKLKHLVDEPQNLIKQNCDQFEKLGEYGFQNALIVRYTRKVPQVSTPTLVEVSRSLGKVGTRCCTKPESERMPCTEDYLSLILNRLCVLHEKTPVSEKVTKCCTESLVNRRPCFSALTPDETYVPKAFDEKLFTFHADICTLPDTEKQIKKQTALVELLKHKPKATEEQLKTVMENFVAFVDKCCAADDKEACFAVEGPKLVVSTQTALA
Method: A particular dye of this invention is generally selected for a particular assay using one or more of the following criteria: sensitivity to poly(amino acids), insensitivity to the presence of nucleic acids, dynamic range, photostability, staining time, and spectral properties. […] Although the fluorescence enhancements and quantum yields are low to moderate in solution, some are significant relative to the long wavelength emission maxima (see Table 1 and Example 21).
Measurements are performed using −1 μM dye+/−150 μg/mL BSA in 10 mM Tris-HCl, pH 7.5,+0.05% SDS with a 2.0 mL sample volume. Fluorescence enhancements are calculated at emission maxima in a standard fluorometer using 470 nm excitation. Fluorescence quantum yields are determined relative to fluorescein (in 0.1 M NaOH), using 470 nm excitation.

proteins = assay: Prestaining of proteins prior to electrophoresis (Example 31); conditions: prestaining before electrophoresis
Method: The proteins of interest are diluted to appropriate concentrations in electrophoresis sample buffer. The samples are then heated to 90-95° C. for 4-5 minutes and allowed to cool to room temperature. Compound 9 is added to the protein solutions to a final concentration of 10 mM, and the samples are loaded onto a 12% polyacrylamide gel, or other appropriate percentage gel. The gel is electrophoresed under standard conditions and visualized directly using ultraviolet illumination. The sensitivity of this method is somewhat less than the sensitivity possible using the methods in Example 22 (post staining the gel after electrophoresis) or in Example 30 (dye in running buffer).

[1] = Fluorescence excitation/emission spectra in 2% SDS at acidic and neutral pH (Example 20, FIG. 1); type: physicochemical; conditions: 2% SDS in 7% acetic acid or phosphate-buffered saline
Method: FIG. 1: Fluorescence excitation/emission spectra of Compound 9. Spectra were generated in 7% acetic acid, 2% SDS. […] Identical spectra were obtained in phosphate-buffered saline, 2% sodium dodecyl sulfate (SDS).
Excitation/emission profiles of Compound 9 are obtained by incubating a […] solution of the dye in 2% SDS that has been prepared in either 7% acetic acid or 50 mM Na2HPO4, 150 mM NaCl, pH 7.0 for 30 minutes. Without the SDS, the dye gives very low fluorescence emission in aqueous solutions or buffers. Measurements are made in a quartz cuvette using a Hitachi F4500 fluorescence Spectrometer (Hitachi, Tokyo, Japan) or similar instrument. Spectra generated in 7% acetic acid, 2% SDS can be essentially superimposed on spectra obtained in phosphate-buffered saline, 2% SDS. Excitation maxima are observed at 300 and 490 nm with emission set at 640 nm. An emission maximum is observed at 640 nm with excitation set at 440 nm. This excitation profile is ideally suited for visualization of the stain using a 302-nm UV-B transilluminator, 473-nm second harmonic generation (SHG) laser or 488-nm argon-ion laser. The dye can also be visualized on a blue-light box (DARK READER™, Clare Research, Boulder, Colo.). The emission maximum of the Compound 9 is observed at 640 nm, and is thus spectrally well matched to emission band-pass filters optimized for the Texas Red dye.

[2] = 150 μg/mL BSA, 10 mM Tris-HCl, pH 7.5, 0.05% SDS
[3] = dye without BSA, 10 mM Tris-HCl, pH 7.5, 0.05% SDS

CCn1c2ccccc2c2cc(/C=C/c3cc[n+](CCCCS(=O)(=O)[O-])c4ccccc34)ccc21 [Compound 9]
Transfer of tubulin from stained gel by electroblotting (tubulin): readily transferred
ABS λ max, BSA (BSA; [2]): 480 nm
EM λ max, BSA (BSA; [2]): 604 nm
FE (fluorescence enhancement, BSA) (BSA; 150 μg/mL BSA, 0.05% SDS, at emission maxima, 470 nm excitation): 92 fold
Quantum Yield (BSA) (BSA; 150 μg/mL BSA, relative to fluorescein in 0.1 M NaOH, 470 nm excitation): 0.21
ABS λ max, unbound (BSA; [3]): 479 nm
EM λ max, unbound (BSA; [3]): ~700 nm
Sensitivity compared with methods of Example 22 or Example 30 (proteins): somewhat less
Excitation maxima ([1]; emission set at 640 nm): 300 nm and 490 nm
Emission maximum ([1]; excitation set at 440 nm): 640 nm
